# Reference: US20260159539
# Like-named read-outs stand apart in the source and are kept apart here.
compound,measurement,setting,value
COC(=O)[C@@H]1Cc2cc(Br)cc(c2)CC[C@@H]2[C@H](CCN2C(=O)OC(C)(C)C)C(=O)N(C)[C@@H](C(C)C)C(=O)N1,"ring closure, isolated yield","from COC(=O)[C@@H](N)Cc1cc(Br)cc(CC[C@@H]2[C@@H](C(=O)N(C)[C@H](C(=O)O)C(C)C)CCN2C(=O)OC(C)(C)C)c1, amide bond, 14-membered ring, HATU/DIEA, DMF, 16.0 mM, 25.0 °C, 1.0 h, 2 steps",34%
COC(=O)[C@@H]1Cc2cc(Cl)cc(c2)CCN2[C@H](CC[C@H]2C(=O)N(C)C)C(=O)N(C)[C@@H](C(C)C)C(=O)N1,"ring closure, isolated yield","from COC(=O)[C@@H](N)Cc1cc(Br)cc(CCN2[C@@H](C(=O)N(C)[C@H](C(=O)O)C(C)C)CC[C@H]2C(=O)N(C)C)c1, amide bond, 14-membered ring, HATU/DIEA, DMF, 17.1 mM, 25.0 °C, 1.0 h, 2 steps",44%
CCn1c(-c2cc(N3CCN(C(=O)OCc4ccccc4)CC3)cnc2[C@H](C)OC)c2c3cc(ccc31)-c1cc(cc(O[Si](C(C)C)(C(C)C)C(C)C)c1)C[C@H](NC(=O)OC(C)(C)C)C(=O)N1CCC[C@H](N1)C(=O)OCC(C)(C)C2,"ring closure, isolated yield","from CCn1c(-c2cc(N3CCN(C(=O)OCc4ccccc4)CC3)cnc2[C@H](C)OC)c(CC(C)(C)CO)c2cc(-c3cc(C[C@H](NC(=O)OC(C)(C)C)C(=O)N4CCC[C@@H](C(=O)O)N4)cc(O[Si](C(C)C)(C(C)C)C(C)C)c3)ccc21, ester bond, 18-membered ring, EDCI/HOBt/DIEA, DCM, 9.3 mM, 25.0 °C, 16.0 h",63%
CCn1c(-c2cc(Oc3cccnc3)cnc2[C@H](C)OC)c2c3cc(ccc31)-c1cc(cc(O[Si](C(C)C)(C(C)C)C(C)C)c1)C[C@H](NC(=O)OC(C)(C)C)C(=O)N1CCC[C@H](N1)C(=O)OCC(C)(C)C2,"ring closure, isolated yield","from CCn1c(-c2cc(Oc3cccnc3)cnc2[C@H](C)OC)c(CC(C)(C)CO)c2cc(-c3cc(C[C@H](NC(=O)OC(C)(C)C)C(=O)N4CCC[C@@H](C(=O)O)N4)cc(O[Si](C(C)C)(C(C)C)C(C)C)c3)ccc21, ester bond, 18-membered ring, EDCI/HOBt/DIPEA, DCM, 9.9 mM, 25.0 °C, 12.0 h, 4 steps",67%
CCn1c(-c2cc(N3CCN(C(=O)OCc4ccccc4)CC3)cnc2[C@H](C)OC)c2c3cc(ccc31)-c1cc(cc(O[Si](C(C)C)(C(C)C)C(C)C)c1)C[C@H](NC(=O)OC(C)(C)C)C(=O)N1CCC[C@H](N1)C(=O)OCC(F)(F)C2,"ring closure, isolated yield","from CCn1c(-c2cc(N3CCN(C(=O)OCc4ccccc4)CC3)cnc2[C@H](C)OC)c(CC(F)(F)CO)c2cc(-c3cc(C[C@H](NC(=O)OC(C)(C)C)C(=O)N4CCC[C@@H](C(=O)O)N4)cc(O[Si](C(C)C)(C(C)C)C(C)C)c3)ccc21, ester bond, 18-membered ring, EDCI/HOBt/DIEA, DCM, 32.0 mM, 25.0 °C, 16.0 h, 2 steps",75%
CCn1c(-c2cc(N3CCN(C4CC4)CC3)cnc2[C@H](C)OC)c(CC(C)(C)CO)c2cc(-c3cc4cc(c3)C[C@@H](C(=O)OC)NC(=O)[C@H](C(C)C)N(C)C(=O)[C@H]3CCCN(C(C)=O)N3CC4)ccc21,"ring closure, isolated yield","from CCn1c(-c2cc(N3CCN(C4CC4)CC3)cnc2[C@H](C)OC)c(CC(C)(C)CO)c2cc(-c3cc(CCN4[C@@H](C(=O)O)CCCN4C(C)=O)cc(C[C@H](NC(=O)[C@@H](NC)C(C)C)C(=O)OC)c3)ccc21, amide bond, 14-membered ring, COMU/DIPEA, DMF, 54.0 mM, 25.0 °C, 1.0 h, 2 steps",42%
CCOC(=O)[C@@H]1Cc2nc(Br)sc2C=C[C@@H]2[C@H](CCN2C(=O)OC(C)(C)C)C(=O)N(C)[C@@H](C(C)C)C(=O)N1,"ring closure, isolated yield","from C=Cc1sc(Br)nc1C[C@H](NC(=O)[C@H](C(C)C)N(C)C(=O)[C@H]1CCN(C(=O)OC(C)(C)C)[C@@H]1C=C)C(=O)OCC, rcm bond, 13-membered ring, Grubbs G2/Ti(OiPr)4, DCM, 28.3 mM, 45.0 °C, 16.0 h",20%
CCn1c(-c2cc(OCc3ccccc3)cnc2[C@H](C)OC)c2c3cc(ccc31)-c1cc(cc(O[Si](C(C)C)(C(C)C)C(C)C)c1)C[C@H](NC(=O)OC(C)(C)C)C(=O)N1CCC[C@H](N1)C(=O)OCC(C)(C)C2,"ring closure, isolated yield","from CCn1c(-c2cc(OCc3ccccc3)cnc2[C@H](C)OC)c(CC(C)(C)CO)c2cc(-c3cc(C[C@H](NC(=O)OC(C)(C)C)C(=O)N4CCC[C@@H](C(=O)O)N4)cc(O[Si](C(C)C)(C(C)C)C(C)C)c3)ccc21, ester bond, 18-membered ring, EDCI/HOBt/DIPEA, DCM, 9.8 mM, 25.0 °C, 16.0 h, 4 steps",67%
CCn1c(-c2cc(N3CCN(C(=O)OCc4ccccc4)CC3)cnc2[C@H](C)OC)c2c3nc(ccc31)-c1cc(cc(O[Si](C(C)C)(C(C)C)C(C)C)c1)C[C@H](NC(=O)OC(C)(C)C)C(=O)N1CCC[C@H](N1)C(=O)OCC(C)(C)C2,"ring closure, isolated yield","from CCn1c(-c2cc(N3CCN(C(=O)OCc4ccccc4)CC3)cnc2[C@H](C)OC)c(CC(C)(C)CO)c2nc(-c3cc(C[C@H](NC(=O)OC(C)(C)C)C(=O)N4CCC[C@@H](C(=O)O)N4)cc(O[Si](C(C)C)(C(C)C)C(C)C)c3)ccc21, ester bond, 18-membered ring, EDCI/HOBt/DIEA, DCM, 32.0 mM, 25.0 °C, 16.0 h, 2 steps",42%
CO[C@@H](C)c1ncc(C2CCN(C(=O)OCc3ccccc3)CC2)cc1-c1c2c3cc(ccc3n1CC(F)(F)F)-c1cc(cc(O[Si](C(C)C)(C(C)C)C(C)C)c1)C[C@H](NC(=O)OC(C)(C)C)C(=O)N1CCC[C@H](N1)C(=O)OCC(C)(C)C2,"ring closure, isolated yield","from CO[C@@H](C)c1ncc(C2CCN(C(=O)OCc3ccccc3)CC2)cc1-c1c(CC(C)(C)CO)c2cc(-c3cc(C[C@H](NC(=O)OC(C)(C)C)C(=O)N4CCC[C@@H](C(=O)O)N4)cc(O[Si](C(C)C)(C(C)C)C(C)C)c3)ccc2n1CC(F)(F)F, ester bond, 18-membered ring, EDCI/HOBt/DIEA, DCM, 8.4 mM, 25.0 °C, 16.0 h, 3 steps",42%
CCc1c(-c2cc(N3CCN(C(=O)OCc4ccccc4)CC3)cnc2[C@H](C)OC)n2c3cc(ccc13)-c1cc(cc(O[Si](C(C)C)(C(C)C)C(C)C)c1)C[C@H](NC(=O)OC(C)(C)C)C(=O)N1CCC[C@H](N1)C(=O)OCC(C)(C)C2,"ring closure, isolated yield","from CCc1c(-c2cc(N3CCN(C(=O)OCc4ccccc4)CC3)cnc2[C@H](C)OC)n(CC(C)(C)CO)c2cc(-c3cc(C[C@H](NC(=O)OC(C)(C)C)C(=O)N4CCC[C@@H](C(=O)O)N4)cc(O[Si](C(C)C)(C(C)C)C(C)C)c3)ccc12, ester bond, 18-membered ring, EDCI/HOBt/DIEA, DCM, 8.8 mM, 25.0 °C, 16.0 h, 2 steps",48%
CCOC(=O)[C@@H]1Cc2nc(Br)nn2/C=C/[C@@H]2[C@H](CCN2C(=O)OC(C)(C)C)C(=O)N(C)[C@@H](C(C)C)C(=O)N1,"ring closure, isolated yield","from C=C[C@@H]1[C@@H](C(=O)N(C)[C@H](C(=O)N[C@@H](Cc2nc(Br)nn2C=C)C(=O)OCC)C(C)C)CCN1C(=O)OC(C)(C)C, rcm bond, 13-membered ring, Grubbs G2/Ti(OiPr)4, DCM, 15.3 mM, 45.0 °C, 12.0 h",27%
COC(=O)[C@@H]1Cc2cc(I)cc(c2)OC[C@@H]2[C@H](CCN2C(=O)OC(C)(C)C)C(=O)N(C)[C@@H](C(C)C)C(=O)N1,"ring closure, isolated yield","from COC(=O)[C@H](Cc1cc(O)cc(I)c1)NC(=O)[C@H](C(C)C)N(C)C(=O)[C@H]1CCN(C(=O)OC(C)(C)C)[C@@H]1COS(=O)(=O)c1ccc(C)cc1, ether bond, 14-membered ring, K2CO3/KI, DMF, 12.2 mM, 80.0 °C, 2.0 h",66%
"tert-butyl (3aS,6S,9S,15S,32aS)-6-isopropyl-21-(2-((S)-1-methoxyethyl)-5-(4-(oxetan-3-yl)piperazin-1-yl)pyridin-3-yl)-5,19,19-trimethyl-4,7,10,16-tetraoxo-22-(2,2,2-trifluoroethyl)-2,3,3a,4,5,6,7,8,9,10,13,14,15,16,18,19,20,22,32,32a-icosahydro-1H,12H-11,15-epimino-23,25-etheno-9,28-methano-26,30-(metheno)dipyrrolo[2,3-c:3′,4′-v][1,18]dioxa[6,9,12]triazacyclotriacontine-1-carboxylate","ring closure, isolated yield","ether bond, 14-membered ring",76%
